The values that follow come from patent publication US10448639B2, “Fungicidal pyrazoles” (FMC CORPORATION, priority 2009, dated 2019).

For test [1], the system named is Puccinia recondita f. sp. tritici. The test is described as follows: Test I: wheat leaf rust, preventive spray on wheat seedlings, visual disease rating. The conditions noted are these: wheat leaf rust, 100 = 100% disease control; for Test I disease control rating: sprayed the day before inoculation, 0 = no disease control relative to controls.
The test system of the next test is Botrytis cinerea. As to the kind of experiment: Test B: tomato Botrytis, preventive spray on tomato seedlings, visual disease rating. The conditions noted are these: tomato Botrytis, 100 = 100% disease control; for Test B disease control rating: 0 = no disease control relative to controls.
The subject of the next test is Septoria tritici. As to the kind of experiment: Test G: wheat leaf blotch, preventive spray on wheat seedlings, visual disease rating. Particulars: wheat leaf blotch, 100 = 100% disease control; for Test G disease control rating: sprayed the day before inoculation, 0 = no disease control relative to controls.
The subject of another test is Alternaria solani. As to the kind of experiment: Test C: tomato early blight, preventive spray on tomato seedlings, visual disease rating. Particulars: tomato early blight, 100 = 100% disease control; for Test C disease control rating: 0 = no disease control relative to controls.
In test [2] the test system is Erysiphe graminis f sp. tritici. The test is described as follows: Test J: wheat powdery mildew, preventive spray on wheat seedlings, visual disease rating. Particulars: wheat powdery mildew, 100 = 100% disease control; for Test J disease control rating: sprayed the day before inoculation, 0 = no disease control relative to controls.
The test system of the next test is Septoria nodorum. As to the kind of experiment: Test F: Septoria glume blotch, preventive spray on wheat seedlings, visual disease rating. Particulars: 100 = 100% disease control; for Test F disease control rating: 0 = no disease control relative to controls.
Test [3] has as its system Puccinia recondita f. sp. tritici. As to the kind of experiment: Test H: wheat leaf rust, curative spray on inoculated wheat seedlings, visual disease rating. Particulars: wheat leaf rust, 100 = 100% disease control; for Test H disease control rating: sprayed after inoculation, 0 = no disease control relative to controls.
Where [4] appears, read: preventive, 0 = no control relative to controls.
The mark [5] stands for this setting: 0 = no control relative to controls.
[6] abbreviates: Septoria glume blotch, 0 = no control relative to controls.
Setting [7] is: curative, 0 = no control relative to controls.
[8] abbreviates: preventive spray, 0 = no control.
The mark [9] stands for this setting: Septoria glume blotch on wheat, preventive spray, 0 = no control.

Structures are written as SMILES.

Description for Septoria tritici: General protocol for preparing test suspensions for Tests A-J: the test compounds were first dissolved in acetone in an amount equal to 3% of the final volume and then suspended at the desired concentration (in ppm) in acetone and purified water (50/50 mix by volume) containing 250 ppm of the surfactant Trem® 014 (polyhydric alcohol esters). The resulting test suspensions were then used in Tests A-J. Spraying a 200 ppm test suspension to the point of run-off on the test plants was the equivalent of a rate of 500 g/ha. Unless otherwise indicated, the rating values indicate a 200 ppm test suspension was used. (An asterisk “*” next to the rating value indicates a 40 ppm test suspension was used.)
The test suspension was sprayed to the point of run-off on wheat seedlings. The following day the seedlings were inoculated with a spore suspension of Septoria tritici (the causal agent of wheat leaf blotch) and incubated in saturated atmosphere at 24° C. for 48 h. and then the seedlings were moved to a growth chamber at 20° C. for 19 additional days, after which time visual disease ratings were made.

`Cc1nn(C)c(Nc2ncc(F)cc2F)c1-c1c(F)cccc1Cl` [compound 279]: the “Test I rating (% disease control)” value in test [1] (setting [4]) worked out at 98%. Further, in the test with Botrytis cinerea (setting [5]), the “Test B rating (% disease control)” value worked out at 100%. Besides, in the test with Septoria tritici (setting [5]), the “Test G rating (% disease control)” value amounted to 100%. Also, the “Test C rating (% disease control)” value with Alternaria solani (setting [5]) is on record as 99%. In addition, the “Test J rating (% disease control)” value in test [2] (setting [5]) was determined as 100%. Further, the “Test F rating (% disease control)” value with Septoria nodorum (setting [6]) was determined as 0%. In test [3] (setting [7]), the “Test H rating (% disease control)” value was found to be 8%.
In the case of `Cc1nn(C)c(Nc2ccc(Cl)cc2)c1-c1c(F)cc(C#N)cc1F` [compound 110], the “Test I rating (% disease control)” value in test [1] (setting [8]) amounted to 97%. Besides, in the test on Botrytis cinerea (setting [8]), the “Test B rating (% disease control)” value worked out at 99%. Further, in the test on Septoria tritici (setting [8]), the “Test G rating (% disease control)” value stood at 99%. The “Test C rating (% disease control)” value in the test on Alternaria solani (setting [8]) is 66%. The “Test J rating (% disease control)” value in test [2] (setting [8]) is listed as 94%. Moreover, the “Test F rating (% disease control)” value in the test with Septoria nodorum (setting [9]) stood at 98%. In test [3] (curative spray, 0 = no control), the “Test H rating (% disease control)” value is listed as 0%.
Consider `COc1ccc(-c2c(C)nn(C)c2Oc2ccc(C#N)cc2F)c(Br)c1` [compound 319], for which the “Test I disease control rating” value in test [1] came to 99%. In addition, the “Test B disease control rating” value in the test on Botrytis cinerea stood at 92%. In the test with Septoria tritici, the “Test G disease control rating” value is listed as 100%. The “Test C disease control rating” value with Alternaria solani came out at 88%. Besides, the “Test J disease control rating” value in test [2] is 95%. The “Test F disease control rating” value in the test on Septoria nodorum (Septoria glume blotch on wheat) is 100%. Besides, the “Test H disease control rating” value in test [3] came out at 0%.
Turning to `COc1cc(F)c(-c2c(C)nn(C)c2Oc2ccc(Cl)c(F)c2)c(F)c1` [compound 152], in test [1] (setting [4]), the “Test I rating (% disease control)” value came out at 97%. In addition, the “Test B rating (% disease control)” value with Botrytis cinerea (setting [5]) was 100%. Further, the “Test G rating (% disease control)” value with Septoria tritici (setting [5]) worked out at 99%. In addition, the “Test C rating (% disease control)” value in the test on Alternaria solani (setting [5]) turned out to be 82%. Further, the “Test J rating (% disease control)” value in test [2] (setting [5]) is 99%. Besides, the “Test F rating (% disease control)” value in the test with Septoria nodorum (setting [6]) is 87%. For the same compound, the “Test H rating (% disease control)” value in test [3] (setting [7]) was found to be 9%.
Regarding `Cc1nn(C)c(Oc2ccc([N+](=O)[O-])cc2Cl)c1-c1c(F)cc(F)cc1F` [compound 32], the “Test I rating (% disease control)” value in test [1] (setting [8]) came to 99%. Further, in the test on Botrytis cinerea (setting [8]), the “Test B rating (% disease control)” value worked out at 99%. In the test on Septoria tritici (setting [8]), the “Test G rating (% disease control)” value is recorded as 96%. Also, in the test with Alternaria solani (setting [8]), the “Test C rating (% disease control)” value came out at 0%. Further, the “Test J rating (% disease control)” value in test [2] (setting [8]) was found to be 97%. For the same compound, the “Test F rating (% disease control)” value in the test with Septoria nodorum (setting [9]) amounted to 0%. Also, the “Test H rating (% disease control)” value in test [3] (curative spray, 0 = no control) was 0%.
Regarding `Cc1nn(Cc2ccccc2)c(Oc2c(F)cc([N+](=O)[O-])cc2F)c1-c1c(F)cc(F)cc1F` [compound 53], the “Test I rating (% disease control)” value in test [1] (setting [8]) stood at 0%. Also, the “Test B rating (% disease control)” value in the test on Botrytis cinerea (setting [8]) is reported as 0%. Besides, in the test with Septoria tritici (setting [8]), the “Test G rating (% disease control)” value worked out at 0%. Moreover, the “Test C rating (% disease control)” value with Alternaria solani (setting [8]) is listed as 0%. The “Test J rating (% disease control)” value in test [2] (setting [8]) turned out to be 0%. The “Test F rating (% disease control)” value in the test on Septoria nodorum (setting [9]) is recorded as 0%. Besides, in test [3] (curative spray, 0 = no control), the “Test H rating (% disease control)” value was 0%.
For the compound `Cc1nn(C)c(Nc2ccc(F)c(F)c2)c1-c1c(F)cc(C#N)cc1F` [compound 114], in test [1] (setting [8]), the “Test I rating (% disease control)” value is listed as 99%. The “Test B rating (% disease control)” value in the test on Botrytis cinerea (setting [8]) was determined as 99%. In addition, in the test on Septoria tritici (setting [8]), the “Test G rating (% disease control)” value was 99%. In the test on Alternaria solani (setting [8]), the “Test C rating (% disease control)” value came out at 24%. Also, in test [2] (setting [8]), the “Test J rating (% disease control)” value came to 84%. Besides, the “Test F rating (% disease control)” value in the test with Septoria nodorum (setting [9]) is listed as 69%. In addition, the “Test H rating (% disease control)” value in test [3] (curative spray, 0 = no control) worked out at 8%.
Turning to `Cc1nn(C)c(Oc2ncc(C(F)(F)F)cc2F)c1-c1ccc(F)cc1Br` [compound 260], the “Test I rating (% disease control)” value in test [1] (setting [4]) is 0%. Also, the “Test B rating (% disease control)” value in the test on Botrytis cinerea (setting [5]) was determined as 0%. Also, the “Test G rating (% disease control)” value in the test on Septoria tritici (setting [5]) worked out at 0%. In addition, the “Test C rating (% disease control)” value with Alternaria solani (setting [5]) is 0%. The “Test J rating (% disease control)” value in test [2] (setting [5]) worked out at 0%. The “Test F rating (% disease control)” value with Septoria nodorum (setting [6]) was 0%. For the same compound, the “Test H rating (% disease control)” value in test [3] (setting [7]) was 0%.
As to `Cc1nn(C)c(Oc2c(F)cc(C#N)cc2F)c1-c1ccccc1C(F)(F)F` [compound 306], in test [1], the “Test I disease control rating” value came to 28%. Besides, the “Test B disease control rating” value in the test with Botrytis cinerea came to 7%. Further, the “Test G disease control rating” value in the test on Septoria tritici was found to be 93%. Moreover, the “Test C disease control rating” value with Alternaria solani is reported as 0%. Also, the “Test J disease control rating” value in test [2] came out at 64%. Moreover, the “Test F disease control rating” value with Septoria nodorum (Septoria glume blotch on wheat) is 0%. Further, the “Test H disease control rating” value in test [3] stood at 0%.
